According to US11351168B1 (Celgene CAR LLC, priority 2008, dated 2022):
Read-outs that look alike come from different tables or passages of the source.

Tests used:
[1] = tested on: BTK signaling in Ramos cells; assay: BTK Ramos cellular assay (phosphorylation of BTK substrate PLCγ2); format: cell-based, human; conditions: 1 hour compound, anti-IgM stimulation, read-out: BTK Inhibition (Ramos cellular)
Experimental: Compounds I-2, I-4, and I-7 were assayed in Ramos human Burkitt lymphoma cells. Ramos cells were grown in suspension in T225 flasks, spun down, resuspended in 50 ml serum-free media and incubated for 1 hour. Compound was added to Ramos cells in serum free media to a final concentration of 1, 0.1, 0.01, or 0.001 μM. Ramos cells were incubated with compound for 1 hour, washed again and resuspended in 100 ul serum-free media. Cells were then stimulated with 1 μg of goat F(ab′)2 Anti-Human IgM and incubated on ice for 10 minutes to activate B cell receptor signaling pathways. After 10 minutes, the cells were washed once with PBS and then lysed on ice with Invitrogen Cell Extraction buffer. 16 μg total protein from lysates were loaded on gel and blots were probed for phosphorylation of the BTK substrate PLCγ2.

[2] = tested on: BTK kinase activity (PLCγ2 phosphorylation) in Ramos cells; assay: Washout experiment with Ramos cells; format: cell-based, human; conditions: 100 nM compound for 1 hour, then washout
Experimental: Washout Experiment with Ramos Cells
Ramos cells were serum starved for one hour in RPMI media+1% glutamine at 37° C. After starvation, Ramos cells were treated with 100 nM compound diluted in serum free RPMI media for 1 hour. After compound treatment, the media was removed and cells were washed with compound-free media. Subsequently, Ramos cells were washed every 2 hours and resuspended in fresh compound-free media. Cells were collected at specified timepoints, treated with 1 ug anti-human IgM (Southern Biotech cat #2022-01) for 10 minutes on ice to induce BCR signaling and then washed in PBS. Ramos cells were then lysed in Cell Extraction Buffer (Invitrogen FNN0011) supplemented with Roche complete protease inhibitor tablets (Roche 11697498001) and phosphatase inhibitors (Roche 04 906 837 001) and 18 ug total protein lysate was loaded in each lane. Inhibition of BTK kinase activity was assayed by measuring its substrate (PLCγ2) phosphorylation by western blot with phospho-specific antibodies from Cell Signaling Technologies cat #3871. The results of this experiment with compounds I-2, I-4 and I-7 are depicted in FIGS. 1, 2 and 3.

Row | Compound | IC50 ([1]; Homo sapiens) | BTK Inhibition Type [2] | IC50 [1]
1 | C=CC(=O)Nc1cccc(Oc2nc(Nc3ccccc3)ncc2F)c1 [Compound I-228, N-(3-(5-fluoro-2-(phenylamino)pyrimidin-4-yloxy)phenyl)acrylamide] | < 0.01 µM | irreversible | –
2 | C=CC(=O)Nc1cccc(Oc2nc(Nc3ccccc3)ncc2C)c1 [Compound I-248, N-(3-(5-methyl-2-(phenylamino)pyrimidin-4-yloxy)phenyl)acrylamide] | < 0.01 µM | irreversible | –
3 | C=CC(=O)Nc1cccc(Nc2nc(Nc3ccccc3)ncc2C(N)=O)c1 [Compound I-230, 4-(3-acrylamidophenylamino)-2-(phenylamino)pyrimidine-5-carboxamide] | < 0.01 µM | irreversible | –
4 | C=CC(=O)Nc1cccc(Nc2nc(Nc3ccc(OCCOC)cc3)ncc2C(C)=O)c1 [Compound I-124, N-(3-{5-Acetyl-2-[4-(2-methoxy-ethoxy)-phenylamino]-pyrimidin-4-ylamino}-phenyl)-acrylamide] | < 0.01 µM | – | –
5 | C=CC(=O)Nc1cccc(Nc2nc(Nc3ccccc3)ncc2F)c1 [Compound I-28, N-(3-(5-fluoro-2-(phenylamino)pyrimidin-4-ylamino)phenyl)acrylamide] | – | irreversible | –
6 | Cc1cnc(Nc2ccccc2)nc1Nc1cccc(NC(=O)/C=C/CN(C)C)c1 [Compound I-38, (E)-4-(dimethylamino)-N-(3-(5-methyl-2-(phenylamino)pyrimidin-4-ylamino)phenyl)but-2-enamide] | 0.01 to 0.1 µM | reversible | –
7 | C=CC(=O)Nc1cccc(Nc2nc(Nc3ccc(OC)nc3)ncc2C#N)c1 [Compound I-173, N-(3-(5-cyano-2-(6-methoxypyridin-3-ylamino)pyrimidin-4-ylamino)phenyl)acrylamide] | < 0.01 µM | – | –
8 | C=CC(=O)N1CCc2cc(Nc3nc(Nc4cccc(S(N)(=O)=O)c4)ncc3C)ccc2C1 [Compound I-40, 3-(4-(2-acryloyl-1,2,3,4-tetrahydroisoquinolin-6-ylamino)-5-methylpyrimidin-2-ylamino)benzenesulfonamide] | 0.01 to 0.1 µM | – | –
9 | C=CC(=O)N1CCc2ccc(Nc3nc(Nc4ccc(OC)nc4)ncc3F)cc21 [Compound I-166, 1-(6-(5-fluoro-2-(6-methoxypyridin-3-ylamino)pyrimidin-4-ylamino)indolin-1-yl)prop-2-en-1-one] | 0.01 to 0.1 µM | – | –
10 | C=CC(=O)Nc1cc(Nc2nc(Nc3ccc(OCCOC)cc3)ncc2F)ccc1Cl [Compound I-108, N-(2-chloro-5-(5-fluoro-2-(4-(2-methoxyethoxy)phenylamino)pyrimidin-4-ylamino)phenyl)acrylamide] | 0.01 to 0.1 µM | – | –
11 | C=CC(=O)N1CCOc2ccc(Nc3nc(Nc4ccc(OC)nc4)ncc3C(C)=O)cc21 [Compound I-170, 1-{6-[5-Acetyl-2-(6-methoxy-pyridin-3-ylamino)-pyrimidin-4-ylamino]-2,3-dihydro-benzo[1,4]oxazin-4-yl}-propenone] | 0.01 to 0.1 µM | – | –
12 | C=CC(=O)Nc1cccc(Oc2nc(Nc3ccc(OCCOC)cc3)ncc2C2CC2)c1 [Compound I-131, N-(3-(5-cyclopropyl-2-(4-(2-methoxyethoxy)phenylamino)pyrimidin-4-yloxy)phenyl)acrylamide] | < 0.01 µM | – | –
13 | C=CC(=O)N1CCOc2ccc(Nc3nc(Nc4ccc(N(C)C(=O)C(F)(F)F)nc4)ncc3C(C)=O)cc21 [Compound I-142, N-(5-(5-acetyl-4-(4-acryloyl-3,4-dihydro-2H-benzo[b][1,4]oxazin-6-ylamino)pyrimidin-2-ylamino)pyridin-2-yl)-2,2,2-trifluoro-N-methylacetamide] | 0.01 to 0.1 µM | – | –
14 | C=CC(=O)N1CCOc2ccc(Nc3nc(Nc4ccc5cn[nH]c5c4)ncc3C(C)=O)cc21 [Compound I-153, 1-{6-[5-Acetyl-2-(1H-indazol-6-ylamino)-pyrimidin-4-ylamino]-2,3-dihydro-benzo[1,4]oxazin-4-yl}-propenone] | – | – | < 0.01 µM
15 | C=CC(=O)N1CCOc2ccc(Nc3nc(Nc4ccc(N5CCOCC5)cc4)ncc3C(C)=O)cc21 [Compound I-169, 1-{6-[5-Acetyl-2-(4-morpholin-4-yl-phenylamino)-pyrimidin-4-ylamino]-2,3-dihydro-benzo[1,4]oxazin-4-yl}-propenone] | < 0.01 µM | – | –
16 | C=CC(=O)Nc1cccc(Nc2nc(Nc3ccccc3)ncc2C#N)c1 [Compound I-157, N-(3-(5-cyano-2-(phenylamino)pyrimidin-4-ylamino)phenyl)acrylamide] | < 0.01 µM | – | –
17 | C=CC(=O)Nc1cccc(Oc2nc(Nc3cccc(OC)c3)ncc2C(=O)NC2CC2)c1 [Compound I-177, 4-(3-acrylamidophenoxy)-2-(3-methoxyphenylamino)-pyrimidine-5-carboxylic acid cyclopropylamide] | 0.1 to 1 µM | – | –
18 | C=C(C)C(=O)c1ccc(Nc2nc(Nc3ccccc3)ncc2F)cc1 [Compound I-185, 1-(4-(5-fluoro-2-(phenylamino)pyrimidin-4-ylamino)phenyl)-2-methylprop-2-en-1-one] | 0.1 to 1 µM | – | –

Second part, led by results:

Row | IC50 ([1]; Homo sapiens) | Compound | BTK Inhibition Type [2] | IC50 [1]
19 | < 0.01 µM | C=CC(=O)Nc1cccc(Nc2nc(Nc3ccc(F)cc3)ncc2F)c1 [Compound I-247, N-(3-(5-fluoro-2-(4-fluorophenylamino)pyrimidin-4-ylamino)phenyl)acrylamide] | irreversible | –
20 | < 0.01 µM | C=CC(=O)Nc1cccc(Nc2nc(Nc3cccc(OC)c3)ncc2C(F)(F)F)c1 [Compound I-242, N-(3-(5-trifluoromethyl-2-(3-methoxyphenylamino)pyrimidin-4-ylamino)phenyl)acrylamide] | irreversible | –
21 | < 0.01 µM | C=CC(=O)Nc1cccc(Nc2nc(Nc3ccc(OC)nc3)ncc2F)c1 [Compound I-243, N-(3-(5-fluoro-2-(6-methoxypyridin-3-ylamino)pyrimidin-4-ylamino)phenyl)acrylamide] | irreversible | –
22 | 0.01 to 0.1 µM | C=CC(=O)Nc1cccc(Nc2nc(Nc3ccc4c(c3)N(C)CCO4)ncc2F)c1 [Compound I-126, N-(3-(2-(4-methyl-2,3-dihydrobenzo[1,4]oxazin-6-yl)amino-5-fluoropyrimidin-4-ylamino)phenyl)acrylamide] | – | –
23 | < 0.01 µM | C=CC(=O)Nc1cccc(Nc2nc(Nc3cccc(S(N)(=O)=O)c3)ncc2C)c1 [Compound I-33, N-(3-(5-methyl-2-(3-sulfamoylphenylamino)pyrimidin-4-ylamino)phenyl)acrylamide] | – | –
24 | < 0.01 µM | C=CC(=O)N1CCOc2ccc(Nc3nc(Nc4ccc(OC)nc4)ncc3F)cc21 [Compound I-194, 1-(6-(5-fluoro-2-(6-methoxypyridin-3-ylamino)pyrimidin-4-ylamino)-2H-benzo[b][1,4]oxazin-4(3H)-yl)prop-2-en-1-one] | – | –
25 | < 0.01 µM | C=CC(=O)Nc1cccc(Nc2nc(Nc3cccc(OCC(C)(C)O)c3)ncc2F)c1 [Compound I-118, N-(3-(5-fluoro-2-(3-(2-hydroxy-2-methylpropoxy)phenylamino)pyrimidin-4-ylamino)phenyl)acrylamide] | – | –
26 | < 0.01 µM | C=CC(=O)Nc1cccc(Nc2nc(Nc3cccc(OCCCn4ccnc4)c3)ncc2F)c1 [Compound I-204, N-(3-(2-(3-(3-(1H-imidazol-1-yl)propoxy)phenylamino)-5-fluoropyrimidin-4-ylamino)phenyl)acrylamide] | – | –
27 | 0.01 to 0.1 µM | C=CC(=O)Nc1cccc(Nc2nc(Nc3cccc(OCC(=O)N4CCOCC4)c3)ncc2F)c1 [Compound I-110, N-(3-(5-fluoro-2-(3-(2-morpholino-2-oxoethoxy)phenylamino)pyrimidin-4-ylamino)phenyl)acrylamide] | – | –
